The values that follow come from ChEMBL document CHEMBL1151025, “Synthesis and influenza neuraminidase inhibitory activity of aromatic analogues of sialic acid” (Bioorg Med Chem Lett, 1995).

Each structure is given as a SMILES string.

A short description of test [1]: Compound was tested for Inhibition of influenza A [influenza A/Shandong/09/93 (H3N2)] neuraminidase. More on the design: species or system Influenza A virus.
Test [2] has as its system MDCK. Put plainly: Inhibitory activity against Influenza virus in MDCK cells. The test is classed as functional, cell-based. Particulars: Canis lupus familiaris.

In test [1], `CC(=O)Nc1c(NC(=N)N)cc(C(=O)O)cc1[C@H](O)[C@H](O)CO` had an IC50 above 100000 nM and a Ki above 100000 nM.

In test [1], `CC(=O)N[C@H]1[C@H]([C@H](O)[C@H](O)CO)OC(C(=O)O)=C[C@@H]1NC(=N)N` [ZANAMIVIR] registered an IC50 of 5 nM and a Ki of 1 nM. Besides, a half-maximal effect in test [2] (EC50) was put at 40 nM.

Usually IC50 stands for the concentration needed to halve the response being measured. What is called Ki is the equilibrium dissociation constant of an inhibitor or competing ligand from its target. A low value points to a stronger hold on the target. What is called EC50 is the concentration at which the effect is half-maximal. A higher EC50 goes with weaker potency.
